# Assays:
# GSH uptake transporters = assay: Inhibition of [3H]-GSH uptake; format: cell-based, human; conditions: 100 nM [3H]-GSH; 1 μM, 100 nM and 10 nM compound
# Experimental: Inhibition of Glutathione Uptake by Ψ-GS. The uptake experiment was performed under conditions described previously. Briefly, the cells were seeded in 24-well plates. After an overnight incubation, the cells were treated with 100 nM concentration of [^3H]-GSH in uptake buffer (128 mM NaCl, 4.73 mM KCl, 1.25 mM CaCl2, 1.25 mM MgSO4, and 5 mM HEPES, pH =7.4) in the presence or absence of Ψ-GSH at concentrations of 10, 100 and 1000 nM at 37° C. under 5% CO2 for 30 min. At the end of incubation, the cellular uptake was terminated by washing three times with ice-cold PBS. Any remaining buffer was aspirated, and the cells were lysed with 1 ml of warm 0.1% SDS/0.1 N NaOH solution for a minimum of 45 min. Intracellular levels of radioactive GSH were determined using liquid scintillation counting. All resulting levels of GSH uptake were normalized to the total protein in each well using a BCA protein assay. All uptake experiments were performed in triplicate and statistically significant differences in uptake were evaluated using Graphpad Prism 5.1 (Graphpad, La Jolla, Calif.) using a one-way ANOVA followed by a Dunnett's post hoc test with a false discovery rate of 0.05.
# C57BL/6 mice = assay: Short-term toxicity / dose determination study; format: in vivo; conditions: i.p. 3×/week for two weeks, highest dose 2000 mg/Kg
# Experimental: Dose Determination Study: Ψ-GSH was injected intraperitoneally and orally in wild type C57BL/6 mice (6-8 week old, 4/group) three times a week for two weeks. The doses of Ψ-GSH employed ranged from 100 mg/kg to 2000 mg/kg. Body weight (twice a week), complete blood count (CBC) analysis and liver, kidney and lung histology was considered to be indicative of toxicity from the drug treatment. Histological sections of tissue were analyzed by a board-certified pathologist at the Masonic Cancer Center-Comparative Pathology Shared Resource, University of Minnesota.
# [1] = Non-protein thiols in plasma and brain (DTNB); format: in vivo, C57BL/6 mice
# Experimental: Detection of Non-Protein Thiols in Plasma and Brain. Wild type C57BL/6 mice at the age of six to eight weeks (4 per group) were treated with Ψ-GSH i.p and orally. Mice were euthanized by overdose of ketamine and xylazine at the desired time-points from the administration of the drug (0, 0.5, 1, 2 and 4 hours after drug administration). Brain and plasma samples were collected. Brains were perfused with ice-cold 0.9% NaCl, and cut sagittally into left and right hemispheres. The right hemisphere was fixed in Zamboni's fixative as described under Immunohistochemistry. The left hemispehere was immediately frozen in liquid nitrogen and utilized in further biochemical analysis. Brain tissue was homogenized in ice-cold buffer (50 mM phosphate, pH 7.0, containing 1 mM EDTA containing protease inhibitors) containing 5% sulfosalicylic acid. After homogenization, samples were centrifuged at 8000×g for 10 min at 4° C. The clear supernatant was transferred to a new tube and used for analysis of free thiol concentration.
# Blood was collected in heparin-coated tubes (Fisher, Pittsburgh, Pa.) and immediately centrifuged at 5000×g for 10 min at 4° C. […]
# Assay Conditions: 150 μl of Tris.HCl, pH 8.9 (Trizma base, 0.2 M; EDTA 0.02 M)+20 μl of DTNB (1 mg/mL in methanol)+50 μl of supernatant from TCA precipitation. The changes in absorbance were measured at 412 nm after […] incubation in dark at room temperature.
# APP/PS1 mice = assay: Morris water maze; format: in vivo; conditions: for escape latency, hidden platform: 500 mg/Kg i.p. 3×/week
# Experimental: Efficacy Study Design. To determine the effect of intraperitoneal and oral Ψ-GSH treatment, the study was divided in four groups (10 mice/group). 1. APP/PS1 mice-vehicle control, 2. APP/PS1 mice-Ψ-GSH i.p. 500 mg/kg, 3. APP/PS1 mice-Ψ-GSH oral 500 mg/kg, 4. Non-transgenic wild type mice-vehicle control. All the animals in the above-said groups were treated with saline or Ψ-GSH three times a week for 12 weeks, starting at the age of three to four months. Eleven weeks after the start of the treatment, the animals were tested in the Morris water maze, and twelve weeks after the start of the treatment, the animals were sacrificed for histopathological analysis.
# Behavior Study. Eleven weeks after the beginning of the treatment, the animals were tested for one week in an open field water maze. The maze consists of a white circular tank (120 cm diameter) of water (23±1° C.) rendered opaque with nontoxic crayola paint. The mice were placed in the water at the edge of the pool and allowed to swim in order to locate a hidden, but fixed escape platform, using extra-maze cues.
# On Day 1, the mice were be placed in the pool and allowed to swim freely for 60 s. If an animal could not locate the hidden platform within that time, it was placed manually upon the platform and left there for 10 s. Each animal was tested in four trials per day. The inter-trial interval was 15 min. Each start position was used equally in a pseudorandom order, and the animals were always placed in the water facing the wall. The platform was placed in the middle of northeast quadrant of the pool (approximately 30 cm from the side of the pool). The mouse's task throughout the experiment was to find and climb onto the platform, escaping the water. Once the mouse learned the task (Day 4, Trial 16), a probe trial was conducted 24 hours after the last trial of acquisition on Day 4.
# In the probe trial (i.e., Trial 17, day 5), the platform was removed from the pool and animals were allowed to swim for 60 s. Their ability to remember the location of the previously present escape platform was quantified in proportion to the residence time of the mouse in the quadrant previously containing the platform. Immediately following the probe trial, visible platform was reintroduced at a different location (i.e southeast quadrant) along with a visible flag. Mice were trained to locate this cued platform in 4 trials conducted in the aforementioned manner.
structure (smiles),measurement,setting,value
"N[C@@H](CNC(=O)N[C@@H](CS)C(=O)NCC(=O)O)C(=O)O [Ψ-GSH, γ-Gla-Cys-Gly-OH]",[3H]-GSH uptake by SH-SY-5Y cells,GSH uptake transporters,inhibited in a dose-dependent manner
same,"ALT, AST, ALP, blood urea nitrogen (BUN) and creatinine levels",C57BL/6 mice,Unaffected
same,Body weights and CBC,C57BL/6 mice,insignificantly affected
same,"Histopathology of lung, liver and kidney tissue vs saline-treated mice",C57BL/6 mice,no significant difference
same,plasma thiol level,"[1]; oral 500 mg/Kg, over 2 hours",reducing to basal levels
same,plasma thiol level,"[1]; single i.p. 500 mg/Kg, at 4 hours",dropped to basal levels
same,"escape latency, hidden platform","APP/PS1 mice; APP-PS1 mice, day 3 of training",17.91 ± 4.65 s
same,"escape latency, hidden platform","APP/PS1 mice; APP-PS1 mice, day 4 of training",14.64 ± 2.61 s
same,"time in the target quadrant, probe trial","APP/PS1 mice; APP-PS1 mice, i.p., 24 h after training",38.43±3.73%
same,path length,"APP/PS1 mice; APP-PS1 mice, i.p., last day of training",2.69±0.47 m
same,Path lengths vs saline-treated controls,"APP/PS1 mice; APP-PS1 mice, oral",insignificantly different
same,"escape latency, visible platform","APP/PS1 mice; APP/PS1 mice, i.p., end of four trials",6.75 ± 1.49 s
same,"time in the target quadrant, probe trial","APP/PS1 mice; APP/PS1 mice, oral",21.76±5.36%
same,spatial memory development and escape latencies vs saline-treated group,"APP/PS1 mice; APP/PS1 mice, oral 3×/week for 3 months, significant (p<0.05) on day 2 only",Trends toward higher spatial memory development and lower escape latencies
